Several values for one entry are separate records, joined by “and”; a condition that tells them apart may be missing. Equal entries are not always repeated. Inconclusive results and toxic doses are left out. How the source made its calls: active means survival T/C of 150% or more; inactive means T/C below 125% in these data.
Tested on: P388 leukemia ip, CD2F1 mice, survival T/C
Experiment: NCI In Vivo Anticancer Drug Screen. Data for tumor model P388 Leukemia (intraperitoneal) in CD2F1 (CDF1) mice
Settings: endpoint: median survival time, higher = longer survival
Method in brief: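 Mice carrying the transplanted tumor received test compound or vehicle. Survival was recorded in each group, and the value is the treated-group measurement divided by that of the vehicle-treated control group.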

[1] = dose: 60.0 mg/kg/injection, schedule: Q01DX005 (ip), vehicle: saline with Tween-80
[2] = dose: 120.0 mg/kg/injection, schedule: Q01DX005 (ip), vehicle: saline with Tween-80
[3] = dose: 240.0 mg/kg/injection, schedule: Q01DX005 (ip), vehicle: saline with Tween-80

Measured: T/C

CC(C)c1oc(=O)cc2c1C(O)C1OC(=O)C3(C)C(O)C4OC4C2(C)C13 (configuration not stated) (tested in a mixture with another compound)
inactive: dose: 15.0 mg/kg/injection, schedule: Q01DX009 (ip), vehicle: saline with Tween-80 113 % of control | dose: 60.0 mg/kg/injection, schedule: Q01DX009 (ip), vehicle: saline with Tween-80 123 % of control

CCCCCC(O)CC(O)CC(=O)CCCC(=O)CC(O)CC(=O)CCCCCC(O)CC(O)CC(=O)CCCC(=O)CC(O)CC(=O)CCCC(C)=O (configuration not stated) (tested in a mixture with another compound)
inactive: dose: 0.62 mg/kg/injection, schedule: Q01DX005 (ip), vehicle: DMSO 91 % of control | dose: 1.25 mg/kg/injection, schedule: Q01DX005 (ip), vehicle: DMSO 91 % of control | dose: 2.5 mg/kg/injection, schedule: Q01DX005 (ip), vehicle: DMSO 90 % of control | dose: 5.0 mg/kg/injection, schedule: Q01DX005 (ip), vehicle: DMSO 92 % of control | dose: 10.0 mg/kg/injection, schedule: Q01DX005 (ip), vehicle: DMSO 100 % of control | dose: 20.0 mg/kg/injection, schedule: Q01DX005 (ip), vehicle: DMSO 93 % of control

CC(=O)OCc1c(COC(C)=O)c(-c2ccc(Cl)c(Cl)c2)n2c1CCC2
inactive: dose: 100.0 mg/kg/injection, schedule: Q01DX009 (ip), vehicle: Klucel (hydroxypropylcellulose) (HPC) 122 % of control

O=C(CNC(=O)NCc1ccco1)NNC(=O)Nc1ccc(F)c(Cl)c1
inactive: [1] 101 % of control | [2] 106 % of control | [3] 110 % of control

COc1ccc2c(c1OC)C(C(C)=O)N1CCc3cc4c(cc3C1=C2)OCO4 (configuration not stated)
inactive: dose: 0.63 mg/kg/injection, schedule: Q01DX009 (ip), vehicle: distilled water + Tween-80 106 % of control | dose: 1.25 mg/kg/injection, schedule: Q01DX009 (ip), vehicle: distilled water + Tween-80 101 % of control | dose: 2.5 mg/kg/injection, schedule: Q01DX009 (ip), vehicle: distilled water + Tween-80 99 % of control | dose: 5.0 mg/kg/injection, schedule: Q01DX009 (ip), vehicle: distilled water + Tween-80 96 % of control | dose: 10.0 mg/kg/injection, schedule: Q01DX009 (ip), vehicle: distilled water + Tween-80 101 % of control | dose: 20.0 mg/kg/injection, schedule: Q01DX009 (ip), vehicle: distilled water + Tween-80 101 % of control

COc1cc2c(c(OC)c1OC)-c1ccc(OC)c(=O)cc1[C@@H](N(C)Cc1ccccc1O)CC2
inactive: dose: 1.25 mg/kg/injection, schedule: Q01DX009 (ip), vehicle: Klucel (hydroxypropylcellulose) (HPC) 97 % of control | dose: 2.5 mg/kg/injection, schedule: Q01DX009 (ip), vehicle: Klucel (hydroxypropylcellulose) (HPC) 97 % of control | dose: 5.0 mg/kg/injection, schedule: Q01DX009 (ip), vehicle: Klucel (hydroxypropylcellulose) (HPC) 111 % of control
active: dose: 20.0 mg/kg/injection, schedule: Q01DX009 (ip), vehicle: Klucel (hydroxypropylcellulose) (HPC) 166 % of control and 188 % of control

O=C1c2nc[nH]c2C(=O)c2c1nc[nH]c2=O
inactive: dose: 3.75 mg/kg/injection, schedule: Q01DX005 (ip), vehicle: other 101 % of control | dose: 7.5 mg/kg/injection, schedule: Q01DX005 (ip), vehicle: other 100 % of control | dose: 15.0 mg/kg/injection, schedule: Q01DX005 (ip), vehicle: other 106 % of control | dose: 30.0 mg/kg/injection, schedule: Q01DX005 (ip), vehicle: other 102 % of control

O=[N+]([O-])c1ccc(C(Cl)Cc2ccc(Cl)cc2)cc1 (configuration not stated)
inactive: [1] 102 % of control | [2] 90 % of control | [3] 94 % of control

C=CC(=O)OCCOCN(COCCOC(=O)C=C)c1nc(N(COCCOC(=O)C=C)COCCOC(=O)C=C)nc(N(COCCOC(=O)C=C)COCCOC(=O)C=C)n1
inactive: dose: 50.0 mg/kg/injection, schedule: Q01DX005 (ip), vehicle: saline with Tween-80 99 % of control | dose: 100.0 mg/kg/injection, schedule: Q01DX005 (ip), vehicle: saline with Tween-80 107 % of control

CC(=O)CC(c1ccccc1)c1c(O)c2ccccc2oc1=O (configuration not stated)
inactive: dose: 0.02 mg/kg/injection, schedule: Q01DX009 (ip), vehicle: Klucel (hydroxypropylcellulose) (HPC) 93 % of control and 96 % of control | dose: 0.05 mg/kg/injection, schedule: Q01DX009 (ip), vehicle: Klucel (hydroxypropylcellulose) (HPC) 100 % of control | dose: 0.05 mg/kg/injection, schedule: Q01DX009 (ip), vehicle: saline 99 % of control | dose: 0.06 mg/kg/injection, schedule: Q01DX009 (ip), vehicle: other 99 % of control | dose: 0.1 mg/kg/injection, schedule: Q01DX009 (ip), vehicle: Klucel (hydroxypropylcellulose) (HPC) 96 % of control and 97 % of control | dose: 0.1 mg/kg/injection, schedule: Q01DX009 (ip), vehicle: saline 96 % of control | dose: 0.13 mg/kg/injection, schedule: Q01DX009 (ip), vehicle: other 92 % of control | dose: 0.2 mg/kg/injection, schedule: Q01DX009 (ip), vehicle: Klucel (hydroxypropylcellulose) (HPC) 95 % of control and 96 % of control | dose: 0.2 mg/kg/injection, schedule: Q01DX009 (ip), vehicle: saline 109 % of control and 92 % of control | dose: 0.25 mg/kg/injection, schedule: Q01DX009 (ip), vehicle: other 95 % of control | dose: 0.4 mg/kg/injection, schedule: Q01DX009 (ip), vehicle: Klucel (hydroxypropylcellulose) (HPC) 91 % of control and 95 % of control | dose: 0.4 mg/kg/injection, schedule: Q01DX009 (ip), vehicle: saline 98 % of control and 90 % of control | dose: 0.5 mg/kg/injection, schedule: Q01DX009 (ip), vehicle: saline with Tween-80 97 % of control | dose: 0.8 mg/kg/injection, schedule: Q01DX009 (ip), vehicle: saline 101 % of control and 91 % of control | dose: 1.0 mg/kg/injection, schedule: Q01DX001 (ip), vehicle: saline + alcohol 101 % of control | dose: 1.0 mg/kg/injection, schedule: Q01DX009 (ip), vehicle: saline with Tween-80 93 % of control | dose: 2.0 mg/kg/injection, schedule: Q01DX001 (ip), vehicle: saline + alcohol 101 % of control | dose: 4.0 mg/kg/injection, schedule: Q01DX001 (ip), vehicle: saline + alcohol 95 % of control | dose: 4.0 mg/kg/injection, schedule: Q04HX002 (ip), vehicle: saline with Tween-80 96 % of control | dose: 8.0 mg/kg/injection, schedule: Q04HX002 (ip), vehicle: saline with Tween-80 99 % of control and 86 % of control | dose: 16.0 mg/kg/injection, schedule: Q04HX002 (ip), vehicle: saline with Tween-80 106 % of control and 96 % of control

Source: PubChem BioAssay AID330 (DTP/NCI, 2004)
